Laboratory results as given in PubChem BioAssay (NCI).
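Briefly, cells in 96-well plates were exposed to five compound concentrations for 48 h, and endpoints were estimated by linear interpolation. Definition used: TGI = concentration required for complete inhibition of growth.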

Experiments:
Assay in all cases: DTP human tumour cell line panel, 48 h
[1] = system: 786-0 renal
[2] = system: A498 renal
[3] = system: A549 NSCLC
[4] = system: ACHN renal
[5] = system: CAKI-1 renal
[6] = system: CCRF-CEM leukemia
[7] = system: COLO 205 colon
[8] = system: DLD-1 colon
[9] = system: DMS 114 small cell lung
[10] = system: DMS 273 small cell lung
[11] = system: EKVX NSCLC
[12] = system: HCC-2998 colon
[13] = system: HCT-116 colon
[14] = system: HCT-15 colon
[15] = system: HOP-18 NSCLC
[16] = system: HOP-62 NSCLC
[17] = system: HOP-92 NSCLC
[18] = system: HT29 colon
[19] = system: IGROV1 ovarian
[20] = system: K-562 leukemia
[21] = system: KM12 colon
[22] = system: KM20L2 colon
[23] = system: LOX IMVI melanoma
[24] = system: LXFL 529 NSCLC
[25] = system: M14 melanoma
[26] = system: M19-MEL melanoma
[27] = system: MALME-3M melanoma
[28] = system: MOLT-4 leukemia
[29] = system: NCI-H226 lung
[30] = system: NCI-H23 lung
[31] = system: NCI-H460 lung
[32] = system: OVCAR-3 ovarian
[33] = system: OVCAR-4 ovarian
[34] = system: OVCAR-5 ovarian
[35] = system: OVCAR-8 ovarian
[36] = system: RPMI-8226 leukemia
[37] = system: RXF 393 renal
[38] = system: SF-268 CNS
[39] = system: SF-295 CNS
[40] = system: SF-539 CNS
[41] = system: SK-MEL-28 melanoma
[42] = system: SK-MEL-5 melanoma
[43] = system: SK-OV-3 ovarian
[44] = system: SN12C renal
[45] = system: SNB-19 CNS
[46] = system: SNB-75 CNS
[47] = system: SNB-78 CNS
[48] = system: SR leukemia
[49] = system: SW-620 colon
[50] = system: TK-10 renal
[51] = system: U251 CNS
[52] = system: UACC-257 melanoma
[53] = system: UACC-62 melanoma
[54] = system: UO-31 renal
[55] = system: HL-60(TB) leukemia
[56] = system: NCI-H522 lung
[57] = system: SK-MEL-2 melanoma
[58] = system: XF 498 CNS

COC(=O)C1=C(c2cc(OC)c(OC)c(OC)c2)OC(c2ccc3c(c2)OCO3)C1 (stereo not given)
TGI [1]: > 100 µM
TGI [2]: 52.2 µM
TGI [3]: > 100 µM
TGI [4]: > 100 µM
TGI [5]: > 100 µM
TGI [6]: > 100 µM
TGI [7]: 26.8 µM
TGI [8]: > 100 µM
TGI [9]: 45.7 µM
TGI [10]: > 100 µM
TGI [11]: 99.2 µM
TGI [12]: > 100 µM
TGI [13]: > 100 µM
TGI [14]: > 100 µM
TGI [15]: > 100 µM
TGI [16]: > 100 µM
TGI [17]: > 100 µM
TGI [18]: 97.5 µM
TGI [19]: 29.5 µM
TGI [20]: > 100 µM
TGI [21]: > 100 µM
TGI [22]: 58.2 µM
TGI [23]: > 100 µM
TGI [24]: 90 µM
TGI [25]: > 100 µM
TGI [26]: > 100 µM
TGI [27]: > 100 µM
TGI [28]: > 100 µM
TGI [29]: > 100 µM
TGI [30]: 98.9 µM
TGI [31]: > 100 µM
TGI [32]: 81.7 µM
TGI [33]: > 100 µM
TGI [34]: > 100 µM
TGI [35]: > 100 µM
TGI [36]: > 100 µM
TGI [37]: > 100 µM
TGI [38]: > 100 µM
TGI [39]: > 100 µM
TGI [40]: > 100 µM
TGI [41]: > 100 µM
TGI [42]: > 100 µM
TGI [43]: > 100 µM
TGI [44]: > 100 µM
TGI [45]: > 100 µM
TGI [46]: > 100 µM
TGI [47]: > 100 µM
TGI [48]: 62.8 µM
TGI [49]: 67.3 µM
TGI [50]: > 100 µM
TGI [51]: > 100 µM
TGI [52]: > 100 µM
TGI [53]: 35.5 µM
TGI [54]: > 100 µM

C=CCOC(C)n1c(C)c(Br)c(=O)[nH]c1=O (stereo not given)
TGI [1]: > 100 µM
TGI [2]: > 100 µM
TGI [3]: > 100 µM
TGI [4]: > 100 µM
TGI [5]: > 100 µM
TGI [6]: > 100 µM
TGI [7]: > 100 µM
TGI [8]: > 100 µM
TGI [9]: > 100 µM
TGI [10]: > 100 µM
TGI [11]: > 100 µM
TGI [12]: > 100 µM
TGI [13]: > 100 µM
TGI [14]: > 100 µM
TGI [55]: > 100 µM
TGI [17]: > 100 µM
TGI [18]: > 100 µM
TGI [19]: > 100 µM
TGI [21]: > 100 µM
TGI [22]: > 100 µM
TGI [23]: > 100 µM
TGI [24]: > 100 µM
TGI [26]: > 100 µM
TGI [27]: > 100 µM
TGI [28]: > 100 µM
TGI [29]: > 100 µM
TGI [30]: > 100 µM
TGI [31]: > 100 µM
TGI [56]: > 100 µM
TGI [32]: > 100 µM
TGI [34]: > 100 µM
TGI [35]: > 100 µM
TGI [37]: > 100 µM
TGI [38]: > 100 µM
TGI [39]: > 100 µM
TGI [40]: > 100 µM
TGI [57]: > 100 µM
TGI [41]: > 100 µM
TGI [42]: > 100 µM
TGI [43]: > 100 µM
TGI [44]: > 100 µM
TGI [45]: > 100 µM
TGI [46]: > 100 µM
TGI [48]: > 100 µM
TGI [49]: > 100 µM
TGI [50]: > 100 µM
TGI [51]: > 100 µM
TGI [52]: > 100 µM
TGI [53]: > 100 µM
TGI [54]: > 100 µM
TGI [58]: > 100 µM
